From paper PMC11645656, “MRGPRX4 mediates phospho-drug associated pruritus in a humanized mouse model” (Science translational medicine, 2024)
Values joined by “and” are separate entries in the source; they are usually repeats but may differ in a detail not shown here. Equal values may be shown once. Read-outs that look alike come from different tables or passages of the source.

Legend:
MRGPRX4 S83L (L83) = MRGPRX4 S83L (L83) (Homo sapiens, UniProt Q96LA9); assay: Calcium mobilization assay (FLIPR), S83L MRGPRX4 transiently expressed in HEK293T cells; format: cell-based; set-up: expressed in transfected cells; host or cells: HEK293T, transient; conditions: Fig. 4E, unit not in the head, taken from Concentration (M) of the sheet and pEC50 [M] of Fig. 4E, read-out: EC50s (each well represents individual experiment)
Source text: (§1) Fig. 4. […] Hydrogen bond is shown as cyan dashed lines. […] Data are from three independent experiments, performed in triplicate. (E) pEC50 plots of various agonists toward S83- and L83-MRGPRX4 through calcium mobilization assay. […] Each data point represents an independent experiment, performed in triplicate. The extra sum-of-square F test was used to examine the difference in EC50 values. One-sided t-test was used for nateglinide. *p< 0.05, **p< 0.01 and ***p< 0.001. ns = no statistical significance. Both (D) and (E) are reported as the mean ± SEM. N.D.= no detectable response ≤ 100 μM.
(§2) HEK293 cells and MRGPRX4 stably expressed HEK293 cells were seeded in 100 μl culture media on 96-well plates at a density of 40,000 cells per well and incubated overnight. The next day, the media were replaced with a dye-loading solution from the FLIPR Calcium 5 assay kit (Molecular Devices), diluted in Hank's Balanced Salt Solution (HBSS) with 20 mM HEPES, pH 7.4. After 1 h of incubation at 37°C, cells were allowed to recover for 10 min in the dark at room temperature prior to performing intracellular calcium mobilization assay in a Flexstation-3 instrument with SoftMax®Pro 7.1 software (Molecular Devices). Serial concentrations of tested drugs were prepared in HBSS/HEPES solution at 3X concentration. […] Compounds were tested in triplicates and the signals were averaged. Responses were determined by subtracting the minimum signal (at the baseline before adding the drug) from the maximum signal (obtained after drug stimulation). Four-parameter logistic (4PL) curve fit was used to plot the dose-response curves. […] Both dose-response curve fitting and EC50s calculation are computed with GraphPad Prism software (version: 6.o or above).
(§3) To generate murine Mrgprs expressing cells, HEK293T cells (ATCC) were seeded on poly-D-lysine coated 96 well plate at 25,000 cells per well one day prior to transfection. HEK293T cells were transiently co-transfected with the mammalian expression plasmids carrying cDNA encoding the murine Mrgpr genes and plasmid inserted with cDNA encoding murine α-subunit of the heterotrimeric G15 protein (Gα15) in triplicates using Lipofectamine LTX reagents (Thermo Scientific). To generate WT, S83L, and alanine mutant MRGPRX4-expressing cells, HEK293T cells were seeded on poly-D-lysine coated 384 well plate at 12,000 cells per well one day prior to transfection. Mammalian expression plasmids pLX304 (vector from Addgene) carrying different MRGPRX4 coding sequences were transiently transfected into HEK293T cells in triplicates with Lipofectamine LTX reagents (Thermo Scientific). Intracellular calcium mobilization assays were performed after one day of transfection. Murine Mrgprs tested include Mrgpra1, Mrgpra2a, Mrgpra2b, Mrgpra3, Mrgpra4, Mrgpra6, Mrgpra9, Mrgpra10, Mrgpra11, Mrgpra12, Mrgpra14, Mrgprb5, Mrgprb6, Mrgprb10, Mrgprb11, and Mrgprc11. WT and mutant MRGPRX4 constructs tested include WT, S83L, R82A, R86A, R95A, W158A, Y250A, and Y254A.

MRGPRX4 WT (S83) = MRGPRX4 WT (S83) (Homo sapiens, UniProt Q96LA9, L83S); assay: Calcium mobilization assay (FLIPR), WT (S83) MRGPRX4 transiently expressed in HEK293T cells; format: cell-based; set-up: expressed in transfected cells; host or cells: HEK293T, transient; conditions: for fig. S8 response (normalized), concentration-response: WT, single replicate; for Potency at S83- vs L83-MRGPRX4: calcium mobilization, compared with S83L (A17)
Source text: as §1, §2, §3

MRGPRX4 S83L (L83), sequence (Q96LA9 whole entry, stated change not applied): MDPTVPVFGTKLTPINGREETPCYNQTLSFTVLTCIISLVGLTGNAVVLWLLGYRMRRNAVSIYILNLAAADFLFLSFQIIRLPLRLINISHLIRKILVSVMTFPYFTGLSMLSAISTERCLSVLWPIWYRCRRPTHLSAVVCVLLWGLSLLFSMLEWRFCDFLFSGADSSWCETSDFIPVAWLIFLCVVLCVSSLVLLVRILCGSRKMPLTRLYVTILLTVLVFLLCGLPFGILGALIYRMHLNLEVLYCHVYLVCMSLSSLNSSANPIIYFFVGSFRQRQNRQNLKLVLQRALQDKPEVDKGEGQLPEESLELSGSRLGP
MRGPRX4 WT (S83), sequence (Q96LA9 whole entry L83S): as the sequence (Q96LA9 whole entry, stated change not applied) above, with L83S counted along it

| EC50 (MRGPRX4 WT (S83); S83-MRGPRX4, Fig. 4E, read-out: pEC50 (converted)) | Structure (SMILES) | EC50 (MRGPRX4 S83L (L83)) | EC50 (MRGPRX4 WT (S83); WT (S83), Fig. 4E, unit not in the head, taken from Concentration (M) of the sheet and pEC50 [M] of Fig. 4E, read-out: EC50s (each well represents individual experiment)) | fig. S8 response (normalized), concentration-response (MRGPRX4 WT (S83); 188.2 pM) | fig. S8 response (normalized), concentration-response (MRGPRX4 WT (S83); 564.5 pM) | fig. S8 response (normalized), concentration-response (MRGPRX4 WT (S83); 1.69351e-9 M) | fig. S8 response (normalized), concentration-response (MRGPRX4 WT (S83); 5.08053e-9 M) | fig. S8 response (normalized), concentration-response (MRGPRX4 WT (S83); 1.52416e-8 M) | fig. S8 response (normalized), concentration-response (MRGPRX4 WT (S83); 4.57247e-8 M) | fig. S8 response (normalized), concentration-response (MRGPRX4 WT (S83); 1.37174e-7 M) | fig. S8 response (normalized), concentration-response (MRGPRX4 WT (S83); 4.11523e-7 M) | fig. S8 response (normalized), concentration-response (MRGPRX4 WT (S83); 1.23457e-6 M) | fig. S8 response (normalized), concentration-response (MRGPRX4 WT (S83); 3.7037e-6 M) | fig. S8 response (normalized), concentration-response (MRGPRX4 WT (S83); 1.11111e-5 M) | fig. S8 response (normalized), concentration-response (MRGPRX4 WT (S83); 3.33333e-5 M) | fig. S8 response (normalized), concentration-response (MRGPRX4 WT (S83); 0.0001 M) | Potency at S83- vs L83-MRGPRX4 (MRGPRX4 WT (S83)) |
| --- | --- | --- | --- | --- | --- | --- | --- | --- | --- | --- | --- | --- | --- | --- | --- | --- | --- |
| – | C[C@]12CC3CC(C(=O)N[C@H](Cc4ccccc4)C(=O)O)(C1)C[C@@](C)(C3)C2 [MS47134] | 2.33e-07 M and 2.26e-07 M and 1.83e-07 M | 1e-05 M and 9.11e-06 M and 5.25e-06 M | 11.5885 and 10.879 and 5.439 and 5.904 and 6.997 and 13.1195 and 4.054 | 1.419 and 2.1285 and 14.19 and 0.656 and -3.499 and 16.1808 and 2.837 and 3.081 | 13.717 and 21.0485 and 8.041 and 7.872 and 6.341 and 14.6502 and 17.1869 and 20.1054 | 10.406 and 7.095 and 9.933 and 10.7143 and 1.312 and 11.3703 and 16.214 and 17.6733 | 16.555 and 11.5885 and 5.439 and 11.8076 and 1.749 and 16.6181 and 8.6745 and 13.0523 | 20.1025 and 15.609 and 18.447 and 12.2449 and 9.84 and 19.0233 and 11.1066 | 23.177 and 26.015 and 20.1025 and 11.3703 and 12.9009 and 13.1195 and 23.7536 | 18.92 and 25.069 and 17.2645 and 15.0875 and 10.7143 and 17.93 and 19.3758 and 16.214 | 24.3595 and 15.8455 and 8.041 and 11.5889 and 9.621 and 14.4315 and 14.7548 and 20.5918 | 23.8865 and 16.3185 and 10.879 and 20.3353 and 21.8659 and 19.0233 and 22.7807 and 20.3486 | 45.6445 and 43.516 and 42.3335 and 43.5131 and 43.9504 and 44.6064 and 52.9388 and 53.9116 | 61.017 and 69.0579 and 61.4432 and 62.3178 and 54.6647 and 48.561 and 41.5079 | 60.544 and 75.4434 and 62.6724 and 56.414 and 74.7813 and 68.4402 and 77.9895 and 57.3166 | the L83 allele, as previously reported, exhibited greater potency and efficacy |
| > 0.0001 M | CC(C)[C@H]1CC[C@H](C(=O)N[C@H](Cc2ccccc2)C(=O)O)CC1 [Nateglinide] | 1.04e-06 M and 7.61e-07 M and 9.29e-07 M | – | – | – | – | – | 11.8843 | – | – | 16.3409 | 15.4027 | – | – | – | – | the L83 allele, as previously reported, exhibited greater potency and efficacy |
